What was measured:
[1] = tested on: Ehrlich ascites carcinoma; experiment: Duration of activity: total cell number in Ehrlich ascites carcinoma; type: in vivo, Mice; details: i.p. on the 6th day after transplantation, equitoxic doses
Experimental: (§1) Mice, being infected with Ehrlich ascites carcinoma, were treated intraperitoneally on the 6th day after transplantation with equitoxic doses of compounds 1, 2 and 6. The duration of the activity was investigated by determining the total cell number and the way of action by determining the mitosis index* and the thymidine index**. It could be shown that both compounds 1 and 2 inhibit the increase of the total cell number for 35 days, while a similar inhibition of the reference compound 6 lasts only for 17 days. As far as the quality of the activity is concerned, compounds 1 and 2 decrease the mitosis-index and the thymidine index in 24 hours by 90%, while in the case of compound 6 the decrease amounts only to 45 to 50%, and the maximum is reached on the 4th day.

[2] = tested on: Ehrlich ascites carcinoma; experiment: Way of activity: thymidine index (3H-thymidine incorporation into DNS) in Ehrlich ascites carcinoma; type: in vivo, Mice; details: in 24 hours; i.p. on 6th day, equitoxic doses
Experimental: as §1
**thymidine index=^3 H-thymidine incorporation into the DNS of the tumour cell.

[3] = tested on: Harding-Passey melanoma; experiment: Antitumour activity, Harding-Passey melanoma, tumour weight (Table 3); type: in vivo, CFLP mice; details: from the 4th day after transplantation
Experimental: (§2) The leukemia and ascites type tumours were transplanted intraperitoneally, using an amount of 10^5 -10^7 cells, while in the case of solid tumours, small pieces of tumours were implanted subcutaneously with a trocar. Treatment:
(§3) Mice were treated with a volume of 0.1 ml./10 g. body-weight of a suspension of the tested compounds in water containing 2% of Tween-80, while rats were treated with a volume of 0.1 ml./100 g. bodyweight of a suspension of the tested compounds in water containing 5% of Tween-80.
(§4) In the case of solid tumours (Harding-Passey melanoma, S-180 and Yoshida sarcoma) the tumours were removed on the 8 to 14th day, and the inhibition was calculated by the weight of the tumours, using the following formula: [formula]

[4] = tested on: Developed Yoshida s.c. sarcoma; experiment: Recovery from developed Yoshida s.c. sarcoma, treated on 6th day (Table 4); type: in vivo, CFY rats; details: 50 mg./kg. 1× i.p. on 6th day; animals recovered/treated
Experimental: as §2, §3
(§5) Recovery=90 days of tumour free life after transplantation.

[5] = tested on: Yoshida s.c. sarcoma; experiment: Antitumour activity, Yoshida s.c. sarcoma, tumour weight (Table 3); type: in vivo, CFY rats; details: from the 2nd day
Experimental: as §2, §3, §4

[6] = tested on: S-180 s.c. sarcoma; experiment: Antitumour activity, S-180 s.c. sarcoma, tumour weight (Table 3); type: in vivo, CFLP mice; details: from the 2nd day
Experimental: as §2, §3, §4

[7] = tested on: Ehrlich ascites carcinoma; experiment: Way of activity: mitosis index in Ehrlich ascites carcinoma; type: in vivo, Mice; details: in 24 hours; i.p. on 6th day, equitoxic doses
Experimental: as §1
*mitosis index=number of dividing cells/1000 tumour cells

[8] = tested on: NK/Ly ascites lymphoma; experiment: Antitumour activity, NK/Ly ascites lymphoma (Table 2); type: in vivo, CFLP mice; details: from the 2nd day; for Recovery (90 day survival): animals recovered/treated
Experimental: as §2, §3
(§6) The ascites and leukemia-type tumours were evaluated with the exception of the Rausher leukemia by the increase of the life span and by complete recovery. [formula]
as §5

[9] = tested on: Rausher leukemia; experiment: Antitumour activity, Rauscher leukemia, spleen weight (Table 3); type: in vivo, CFLP mice; details: 10.0 mg./kg. 6× i.p., from the 2nd day
Experimental: as §2, §3, §4
A similar method was applied in the case of the Rauscher leukemia too, but the weight of the spleen was taken, instead of the tumour, in the formula mentioned above.

[10] = tested on: BDF1 mice; experiment: Acute toxicity (LD50), 21 days observation; type: in vivo; details: BDF1 mice of both sexes
Experimental: Species: BDF1 mice of both sexes
Treatment: a volume of 0.2 ml./10 g. body weight of a suspension of the tested compounds in water containing 2% of Tween-80 was used.
Number of animals: 10/dose
Observation time: 21 days

[11] = tested on: L-120 leukemia; experiment: Antitumour activity, L-1210 leukemia (Table 2); type: in vivo, BDF1 mice; details: from the 2nd day; for Recovery (90 day survival): animals recovered/treated
Experimental: as §2, §3, §6, §5

[12] = tested on: P-388 leukemia; experiment: Antitumour activity, P-388 leukemia (Table 2); type: in vivo, BDF1 mice; details: 12.0 mg./kg. 4× i.p., from the 2nd day; animals recovered/treated
Experimental: as §2, §3, §6, §5

[13] = tested on: Ehrlich acites carcinoma; experiment: Antitumour activity, Ehrlich ascites carcinoma (Table 2); type: in vivo, CFLP mice; details: 1.5 mg./kg. 4× i.p., from the 2nd day; animals recovered/treated
Experimental: as §2, §3, §6, §5

1,4-bis[3-(2-chloroethyl)-N-nitrosoureido]-1,4-dideoxy-D,L-threitol [Compound 1]
Duration of inhibition of the increase of the total cell number [1]: 35 days
Decrease of the thymidine index [2]: 90%
Inhibition (tumour weight) ([3]; 10.0 mg./kg. 5× p.o.): 96%
Inhibition (tumour weight) ([3]; 24.0 mg./kg. 1× i.p.): 81%
Recovery (90 day survival) [4]: 5/7
Inhibition (tumour weight) ([5]; 12 mg./kg. 4× i.p.): 99%
Inhibition (tumour weight) ([5]; 24 mg./kg. 1× i.p.): 76%
Inhibition (tumour weight) ([6]; 3.0 mg./kg. 2× i.p.): 43%
Inhibition (tumour weight) ([6]; 10.0 mg./kg. 4× p.o.): 42%
Inhibition (tumour weight) ([6]; 12.0 mg./kg. 4× i.p.): 80%
Decrease of the mitosis-index [7]: 90%
Recovery (90 day survival) ([8]; 1.5 mg./kg. "433" i.p.): 6/8
Recovery (90 day survival) ([8]; 3.0 mg./kg. 4× i.p.): 8/8
Increase in life span ([8]; 30.0 mg./kg. 4× p.o.): 89%
Recovery (90 day survival) ([8]; 30.0 mg./kg. 4× p.o.): 1/7
Inhibition (spleen weight) [9]: 78%
LD50 value i.p. ([10]; i.p.): 80 mg/kg
LD50 value p.o. ([10]; p.o.): 135 mg/kg
Increase in life span ([11]; 7.5 mg./kg. 1× i.p.): 45%
Recovery (90 day survival) ([11]; 7.5 mg./kg. 1× i.p.): 2/8
Increase in life span ([11]; 12.5 mg./kg. 1× p.o.): 23%
Recovery (90 day survival) ([11]; 12.5 mg./kg. 1× p.o.): 1/8
Increase in life span ([11]; 12.5 mg./kg. 3× p.o.): 30%
Recovery (90 day survival) ([11]; 12.5 mg./kg. 3× p.o.): 3/8
Increase in life span ([11]; 15.0 mg./kg. 1× i.p.): 29%
Recovery (90 day survival) ([11]; 15.0 mg./kg. 1× i.p.): 3/8
Increase in life span ([11]; 25.0 mg./kg. 1× p.o.): 111%
Recovery (90 day survival) ([11]; 25.0 mg./kg. 1× p.o.): 3/8
Recovery (90 day survival) ([11]; 25.0 mg./kg. 3× p.o.): 6/8
Increase in life span ([11]; 30.0 mg./kg. 1× i.p.): 230%
Recovery (90 day survival) ([11]; 30.0 mg./kg. 1× i.p.): 7/8
Increase in life span ([11]; 50.0 mg./kg. 1× p.o.): 84%
Recovery (90 day survival) ([11]; 50.0 mg./kg. 1× p.o.): 4/8
Recovery (90 day survival) [12]: 7/8
Recovery (90 day survival) [13]: 6/8

Reference: patent US4237273A, “Bis(nitrosoureido)-polyol derivatives” (Richter Gedeon Vegyeszeti Gyar RT, priority 1977, dated 1980)
